Assay results: patent US20190262404A1, “PHARMACEUTICAL COMPOSITION FOR PREVENTING OR TREATING IMMUNE DISEASE OR INFLAMMATORY DISEASE INCLUDING INFLAMMATORY STIMULATED MESENCHYMAL STEM CELL” (SCM LIFESCIENCE CO., LTD., priority 2016, published 2019)
Like-named read-outs stand apart in the source and are kept apart here.

Columns and labels:
Format in all cases: cell-based, human
PHA-activated PBMCs = experiment: ELISA of proinflammatory cytokines, MSCs co-cultured with PHA-activated PBMCs, medium with nAChR antagonist or agonist
Method: (§1) The medium was harvested from nAChR antagonist or agonist-containing co-culture experiments. The secreted proinflammatory cytokines were quantified using the ELISA kits for TNF-α (BD Biosciences; cat. #555212) and IFN-γ (BD Biosciences; cat. #555141). The medium in which MLR- or PHA-activated PBMCs were cultured was used to carry out the assay for NGF (R&D Systems, Minneapolis, Minn., USA; cat. # DY256-05) and BDNF (R&D Systems; cat. # DBD00).
(§2) α-Bungarotoxin (EMD Millipore; cat. #203980), an nAChRα7 antagonist, was added to the medium at the concentration of […]. As cholinergic agonists, ACh chloride (Sigma; cat. # A6625) and carbachol (EMD Millipore; cat. #212385) were used at the concentrations of 1 nM and 10 pM, respectively, and the experiments were conducted.
(§3) In order to confirm ACh-nAChR pathway mechanism of MSCs under the inflammatory conditions, experiments were performed according to the methods described in Experimental Examples 1-2 and 1-10. The mixed lymphocyte reaction (MLR) condition was set such that PBMCs obtained from different donors were cultured together, and the phytohemagglutinin (PHA) treatment condition was set such that PBMCs were treated with PHA. According to inflammatory conditions, each PBMCs only group (P and Po) obtained from different donors; MSCs group co-cultured in mixed lymphocyte reaction (MLR) condition (MSC in MLR); mixed lymphocyte reaction condition group without MSCs (MLR); or MSCs group co-cultured in phytohemagglutinin (PHA) treatment condition (MSC in P^PHA) were placed. A cholinergic antagonist such as α-bungarotoxin (α-BTX, an antagonist of nAChRα7); a cholinergic agonist such as ACh chloride (ACh-Cl, an agonist of AChR); or a non-specific cholinergic agonist such as carbachol was added to the medium, and the activity of TNF-α and IFN-γ of MSCs by each inflammatory condition was confirmed. The results are illustrated in FIG. 14.

MLR-activated PBMCs = experiment: ELISA of proinflammatory cytokines, MSCs co-cultured with MLR-activated PBMCs, medium with nAChR antagonist or agonist
Method: as §1, §2, §3

[1] = system: MLR- or PHA-activated PBMCs; experiment: MSCs co-cultured with MLR- or PHA-activated PBMCs in medium supplemented with carbachol; details: carbachol 10 pM added to MSCs culture medium under the inflammatory condition (FIGS. 15A to 15D)
[2] = MSCs + PHA-activated PBMCs, α-BTX 1 M or ACh-Cl 1 nM added to the medium
[3] = MSCs + MLR-activated PBMCs, α-BTX 1 M or ACh-Cl 1 nM added to the medium

Compound: α-Bungarotoxin [α-BTX]
- IFN-γ (PHA-activated PBMCs): activated again
- TNF-α (PHA-activated PBMCs): activated again
- IFN-γ (MLR-activated PBMCs): activated again
- TNF-α (MLR-activated PBMCs): activated again

Compound: C[N+](C)(C)CCOC(N)=O [carbachol]
- inflammatory cytokine release [1]: inhibited
- lymphocyte proliferation [1]: inhibited the lymphocyte proliferation

Compound: CC(=O)OCC[N+](C)(C)C.[Cl-] [ACh-Cl, ACh chloride]
- IFN-γ (PHA-activated PBMCs; [2]): significantly inhibited
- TNF-α (PHA-activated PBMCs; [2]): significantly inhibited
- IFN-γ (MLR-activated PBMCs; [3]): significantly inhibited
- TNF-α (MLR-activated PBMCs; [3]): significantly inhibited
